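Test compounds were applied to cells in 96-well plates for 48 hours at 5 doses. GI50 = concentration required for 50% inhibition of growth.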 Calls of active or inactive are those of the source. No stated cut-off is given here; in the data, active = GI50 up to about 1.1 µM and inactive = higher.
Tests used:
Experiment in all cases: NCI-60 cell line screen, 48 h
[1] = test system: OVCAR-5
[2] = test system: CCRF-CEM
[3] = test system: HCC 2998
[4] = test system: SF-295
[5] = test system: K562
[6] = test system: COLO 205
[7] = test system: Malme-3M
[8] = test system: T47D
[9] = test system: DU-145
[10] = test system: BT-549
[11] = test system: HL-60
[12] = test system: NCI-H226
[13] = test system: 786-0
[14] = test system: UACC-257
[15] = test system: SNB-75
[16] = test system: MCF7
[17] = test system: SK-MEL-2
[18] = test system: SN12C
[19] = test system: RPMI-8226
[20] = test system: U-251
[21] = test system: M14
[22] = test system: SW-620
[23] = test system: RXF 393
[24] = test system: MDA-N
[25] = test system: CAKI-1
[26] = test system: MDA-MB-231
[27] = test system: ACHN
[28] = test system: IGROV-1
[29] = test system: LOX IMVI
[30] = test system: HCT-15
[31] = test system: SNB-19
[32] = test system: NCI-H522
[33] = test system: EKVX
[34] = test system: SF-539
[35] = test system: HOP-92
[36] = test system: A549
[37] = test system: MDA-MB-435
[38] = test system: TK-10
[39] = test system: NCI-H460
[40] = test system: SR
[41] = test system: SF-268
[42] = test system: SK-MEL-28
[43] = test system: SK-MEL-5
[44] = test system: Hs-578T
[45] = test system: UO-31
[46] = test system: UACC-62
[47] = test system: OVCAR-4
[48] = test system: OVCAR-8
[49] = test system: OVCAR-3
[50] = test system: MOLT-4
[51] = test system: NCI/ADR-RES
[52] = test system: PC-3
[53] = test system: A498
[54] = test system: KM12
[55] = test system: HT-29
[56] = test system: NCI-H23
[57] = test system: SK-OV-3
[58] = test system: HCT-116
[59] = test system: HOP-62

NC(CCCCNc1ccn(C2OC(CO)C(O)C2O)c(=O)n1)C(=O)O (configuration not stated)
GI50 [1]: > 100 µM (inactive)
GI50 [2]: 35 µM (inactive)
GI50 [3]: 76.6 µM (inactive)
GI50 [4]: 30.6 µM (inactive)
GI50 [5]: > 100 µM (inactive)
GI50 [6]: > 100 µM (inactive)
GI50 [7]: > 100 µM (inactive)
GI50 [8]: > 100 µM (inactive)
GI50 [9]: > 100 µM (inactive)
GI50 [10]: > 100 µM (inactive)
GI50 [11]: > 100 µM (inactive)
GI50 [12]: > 100 µM (inactive)
GI50 [13]: > 100 µM (inactive)
GI50 [14]: > 100 µM (inactive)
GI50 [15]: > 100 µM (inactive)
GI50 [16]: > 100 µM (inactive)
GI50 [17]: 77.8 µM (inactive)
GI50 [18]: > 100 µM (inactive)
GI50 [19]: > 100 µM (inactive)
GI50 [20]: 97.1 µM (inactive)
GI50 [21]: 37.8 µM (inactive)
GI50 [22]: > 100 µM (inactive)
GI50 [23]: > 100 µM (inactive)
GI50 [24]: > 100 µM (inactive)
GI50 [25]: > 100 µM (inactive)
GI50 [26]: > 100 µM (inactive)
GI50 [27]: > 100 µM (inactive)
GI50 [28]: 65.8 µM (inactive)
GI50 [29]: > 100 µM (inactive)
GI50 [30]: 74.5 µM
GI50 [31]: > 100 µM (inactive)
GI50 [32]: > 100 µM (inactive)
GI50 [33]: > 100 µM (inactive)
GI50 [34]: > 100 µM (inactive)
GI50 [35]: 53.7 µM (inactive)
GI50 [36]: 50.5 µM (inactive)
GI50 [37]: 88.1 µM (inactive)
GI50 [38]: > 100 µM (inactive)
GI50 [39]: > 100 µM (inactive)
GI50 [40]: > 100 µM (inactive)
GI50 [41]: > 100 µM (inactive)
GI50 [42]: > 100 µM (inactive)
GI50 [43]: > 100 µM (inactive)
GI50 [44]: > 100 µM (inactive)
GI50 [45]: > 100 µM (inactive)
GI50 [46]: > 100 µM (inactive)
GI50 [47]: > 100 µM (inactive)
GI50 [48]: 73.1 µM (inactive)
GI50 [49]: > 100 µM (inactive)
GI50 [50]: 73.3 µM (inactive)
GI50 [51]: > 100 µM (inactive)
GI50 [52]: > 100 µM (inactive)
GI50 [53]: > 100 µM (inactive)
GI50 [54]: > 100 µM (inactive)

N/C(=N/c1ccc(O)cc1)S(=O)O
GI50 [1]: > 100 µM (inactive)
GI50 [2]: 89.9 µM (inactive)
GI50 [55]: > 100 µM (inactive)
GI50 [3]: > 100 µM (inactive)
GI50 [4]: > 100 µM (inactive)
GI50 [5]: > 100 µM (inactive)
GI50 [6]: > 100 µM (inactive)
GI50 [7]: > 100 µM (inactive)
GI50 [8]: > 100 µM (inactive)
GI50 [9]: > 100 µM (inactive)
GI50 [10]: > 100 µM (inactive)
GI50 [11]: > 100 µM (inactive)
GI50 [12]: 37.2 µM (inactive)
GI50 [13]: > 100 µM (inactive)
GI50 [56]: > 100 µM (inactive)
GI50 [14]: > 100 µM (inactive)
GI50 [57]: 41.5 µM (inactive)
GI50 [15]: > 100 µM (inactive)
GI50 [16]: > 100 µM (inactive)
GI50 [17]: > 100 µM (inactive)
GI50 [18]: > 100 µM (inactive)
GI50 [19]: > 100 µM (inactive)
GI50 [20]: > 100 µM (inactive)
GI50 [21]: > 100 µM (inactive)
GI50 [58]: > 100 µM (inactive)
GI50 [22]: > 100 µM (inactive)
GI50 [23]: > 100 µM (inactive)
GI50 [24]: > 100 µM (inactive)
GI50 [25]: > 100 µM (inactive)
GI50 [26]: > 100 µM (inactive)
GI50 [27]: > 100 µM (inactive)
GI50 [28]: > 100 µM (inactive)
GI50 [59]: > 100 µM (inactive)
GI50 [29]: > 100 µM (inactive)
GI50 [30]: > 100 µM
GI50 [31]: > 100 µM (inactive)
GI50 [32]: > 100 µM (inactive)
GI50 [33]: > 100 µM (inactive)
GI50 [34]: > 100 µM (inactive)
GI50 [35]: > 100 µM (inactive)
GI50 [36]: > 100 µM (inactive)
GI50 [37]: > 100 µM (inactive)
GI50 [38]: > 100 µM (inactive)
GI50 [40]: > 100 µM (inactive)
GI50 [41]: > 100 µM (inactive)
GI50 [42]: > 100 µM (inactive)
GI50 [43]: > 100 µM (inactive)
GI50 [44]: > 100 µM (inactive)
GI50 [45]: > 100 µM (inactive)
GI50 [46]: > 100 µM (inactive)
GI50 [47]: > 100 µM (inactive)
GI50 [48]: > 100 µM (inactive)
GI50 [49]: > 100 µM (inactive)
GI50 [50]: > 100 µM (inactive)
GI50 [51]: > 100 µM (inactive)
GI50 [52]: > 100 µM (inactive)
GI50 [53]: > 100 µM (inactive)
GI50 [54]: > 100 µM (inactive)

From ChEMBL document CHEMBL1201862, “PubChem BioAssay data set” (2004)
